The METLIN SMRT retention time set (Domingo-Almenara et al. 2019)

Test: gradient 5% acetonitrile 3 min, to 50% in 2 min, to 85% in 15 min, held 3 min, 100 µL/min
Details: column: Zorbax Extend-C18 2.1 x 50 mm; eluents: water / acetonitrile, 0.1% formic acid
How it was run: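 Retention times of pure standards were taken from adduct peaks that were selected by computer and manually inspected. Over 3 months, mixtures of ~100 molecules were run by HPLC–quadrupole time-of-flight mass spectrometry in positive and negative ionization mode. The Zorbax Extend-C18 column (2.1 × 50 mm, 1.8 μm) ran at 100 μL/min in water and acetonitrile, each containing 0.1% formic acid, with 40 μL dead volume and 900 μL dwell volume.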

RP-LC retention time [s] | SMILES
592 | OCCN1CCN(c2ncnc3c2cnn3-c2cccc(Cl)c2)CC1
891 | CCc1ccc(Nc2ncccc2S(N)(=O)=O)cc1
1130 | CCCc1noc(-c2ccc(-n3ncc(C(=O)N4CCC(C)CC4)c3C)nc2)n1
650 | Cc1cccc(CN2CCn3c(nnc3[C@@H]3C[C@@H](O)CN3Cc3ccccc3)C2)c1
604 | CCN1CCCC1CNC(=O)Cn1ncn2nc(-c3ccccc3)cc2c1=O (stereo not given)
865 | CN(C)c1cccc(C(=O)NC2CCN(c3cc(-c4ccc(Cl)cc4)[nH]n3)C2)c1 (stereo not given)
904 | COc1cc(Cc2nc(-c3cccc(-c4ccnn4C)c3)no2)cc(OC)c1
1190 | O=S(=O)(c1ccc2c(c1)CCCN2)N1CCC[C@H]2CCCC[C@@H]21
609 | Cc1cccc(NC(=O)c2cn3c(n2)CCCC3)c1
861 | CCn1cc(-c2ccc(F)cc2)cc1C(=O)O
816 | Cc1ccc(NC(=O)C2(C)Oc3cccnc3N(C)C2=O)c(C)c1 (stereo not given)
710 | Oc1cccc(-c2nc3cnccn3c2Nc2ccccc2)c1
725 | CCC(=O)N1CCCc2cc(NC(=O)c3ccco3)ccc21
754 | CCn1cnc(S(=O)(=O)N2CCCC(C(=O)Nc3cccc(C)c3C)C2)c1 (stereo not given)
597 | CS(=O)(=O)N1CCCc2cc(C(=O)NCCCn3ccnc3)ccc21
871 | O=C(CCc1ccccc1)Nc1ccc2c(c1)N(C(=O)c1ccco1)CCC2
688 | Cc1cccc(-n2ncc(C(=O)N3CCN(c4ccccn4)CC3)c2-n2cccc2)c1
875 | CCCn1c(-c2cccc(C(=O)NCc3ccc(Br)cc3)c2)nc2cccnc21
909 | Cc1ccc(-c2nc3nc4c(c(N5CCCC5)n3n2)CCC4)cc1
782 | COc1ccc(Cn2ccc3ccc(C(=O)NO)cc32)cc1
656 | Cc1cc(Nc2ccc(NC(=O)c3ccc4c(c3)OCO4)cc2)nc(N2CCOCC2)n1
727 | COc1ccc(Cl)cc1C(=O)Nc1ccc(-c2cn3ccc(C)nc3n2)cc1
726 | CCc1ccccc1NC(=O)C1CCCN(S(=O)(=O)c2cn(CC)cn2)C1 (stereo not given)
655 | COc1ccc(S(=O)(=O)N2CCC(CN3CCC(C)CC3)CC2)cc1
805 | Cc1ccccc1Cn1c(CN2CCC(C(=O)NCCc3ccco3)CC2)cc2ccccc21

RP-LC retention time [s] | SMILES
841 | Cc1nc(Nc2ccccn2)sc1C(=O)N1CCN(c2ccccc2F)CC1
700 | O=C(c1ccc(Cn2cncn2)cc1)N1CCN(c2ccc(F)cc2)CC1
606 | Cc1cccc(-c2noc(C3CCCN3C(=O)Nc3ccccc3Cl)n2)c1 (stereo not given)
1030 | CC1CCN(c2cc(-n3cnc(C(=O)Nc4ccc5c(c4)OCCO5)c3)ncn2)CC1
919 | Cc1ccc2c(c1)C(=O)NC1(CCN(C(=O)c3ccc(F)c(Cl)c3)CC1)N2C
784 | COCCc1noc(C2CN(S(=O)(=O)c3cccc(F)c3)C2)n1
835 | Cc1ccc(C)c(CNS(=O)(=O)c2cc(-c3[nH]ncc3C(=O)N3CCCC3)oc2C)c1
1140 | COc1cccc(NS(=O)(=O)c2cccc(-c3nc(-c4ccccc4)no3)c2)c1
703 | Cc1nc2cc(N3CC(C(=O)Nc4ccccc4)CC3=O)ccc2o1 (stereo not given)
562 | COc1cccc(-c2cc3n(n2)C(NC2CC2)CNC3=O)c1 (stereo not given)
648 | O=S(=O)(Nc1ccc2c(c1)OCO2)c1ccc2nncn2c1
604 | Cc1cccn2cc(-c3cccc(S(=O)(=O)N4CCOCC4)c3)nc12
820 | CCc1nnc2cc(N3CCN(S(=O)(=O)c4ccc(C(C)C)cc4)CC3)cnn12
624 | O=C(NCc1ccc(N2CCN(c3ccccn3)CC2)cc1)c1ccoc1
862 | Cc1ccc(S(=O)(=O)N2CCCCCC2c2nnc(C)o2)c(C)c1 (stereo not given)
632 | O=C(NC1CCCC1)C1CCN(C(=O)c2cccn2-c2cccnc2)CC1
691 | CC(=O)N1CCc2cc(C)c(S(=O)(=O)NCC3CCCO3)cc21 (stereo not given)
712 | CCOc1ccc(C(C)NC(=O)C2CCCN(c3cnc4nccnc4c3)C2)cc1 (stereo not given)
908 | CCOC(=O)C1CCN(S(=O)(=O)c2ccc3c(c2)-c2oncc2CO3)CC1
696 | CCN1CCN(c2ccc(-c3nc(-c4ccc(OC)cc4)no3)cn2)CC1
975 | Cn1cc(-c2nc(C(=O)NCc3ccc(F)c(Cl)c3)cs2)c2cccnc21
986 | COc1cc(CNC(=O)C2CCCN(c3nccnc3Sc3ccccc3)C2)cc(OC)c1 (stereo not given)
946 | CCc1nc(-c2csc(S(=O)(=O)N3CCCC(C(=O)NCc4ccc(C)o4)C3)c2)no1 (stereo not given)
575 | O=C(CCCc1ccccc1)N1CCN(c2ccc(Nc3cccnc3)nn2)CC1
732 | CCc1cccc(NC(=O)C2CCN(S(=O)(=O)c3cn(C)cn3)CC2)c1

More lines, now with the values behind:

SMILES | RP-LC retention time [s]
Cc1cc(-c2ccc(N3C(=O)CC4(CCCC4)C3=O)c(C)c2)ccc1N1C(=O)CC2(CCCC2)C1=O | 1170
CCOc1cc(C(=O)N2CCN(c3cc(=O)n(C)c(=O)n3C)CC2)cc(OCC)c1OCC | 730
O=C(NCCc1ccc(F)cc1)C(=O)Nc1ccc(Cl)cn1 | 918
COC(=O)[C@H](Cc1ccc([N+](=O)[O-])cc1)NC(=O)c1cccc2ccccc12 | 909
Cc1cc(Br)ccc1-c1ccc(CNCCCN(C)C)o1 | 927
Cc1noc(C)c1CNC(=O)Cc1ccccc1Cl | 725
Cc1ccc(C(=O)N2CCCC(COc3ccc(C(=O)NC(C)C)cc3)C2)cc1C (stereo not given) | 931
Cc1cc(NC(=O)CSc2nnc(C(C)C)c3cnn(-c4ccc(C)c(C)c4)c23)no1 | 845
Cc1cc(-c2nnc(-c3ccc(F)cc3)o2)c(C)n1CC(=O)NCc1cc(F)cc(F)c1 | 992
CC(C)Oc1ccc(-c2noc(Cn3c(=O)n(Cc4ccccc4)c(=O)c4sccc43)n2)cc1 | 1170
Cc1nc2c(C(=O)NCCN(C)C)cnn2c(C)c1Cc1ccccc1Cl | 674
COCC1CCN(C(=O)COc2ccc(NC(=O)C3CC3)cn2)CC1 | 650
O=C(CCCc1ccccc1)N1CCN2CCS(=O)(=O)N(C3CC3)C(=O)C2C1 (stereo not given) | 852
CC(C)CNC(=O)N1CCc2nc(OCC3CC3)ccc2C1 | 848
COc1cc(NC(=O)N2CC3CCCN3c3ccccc32)cc(OC)c1OC (stereo not given) | 702
COc1ccc(-c2ncc3c(n2)CCN(C(=O)c2ccc(Cl)cc2)C3)cc1 | 969
Cc1cnc(C(=O)NC2C[C@H]3CC[C@@H](C2)N3C(=O)CCC2CCCCC2)cn1 (stereo not given in full) | 821
CCC(=O)Nc1ccc2c(c1)CN(C(=O)c1ccc(Cl)cc1)C(C(=O)N1CCCC1)C2 (stereo not given) | 738
COc1ccccc1-c1nnc(Nc2nc3ccc(SC)cc3s2)o1 | 830
COc1cc(OC)cc(-c2nnc(Cc3nc(-c4ccccc4Cl)no3)o2)c1 | 1020

SMILES | RP-LC retention time [s]
COc1cccc(OC)c1C(=O)Nc1ccc2c(c1)Sc1ncccc1C(=O)N2C(C)C | 883
Cc1nc(-c2csc(S(=O)(=O)NCc3ccc(F)cc3Cl)c2)sc1C | 1070
Cc1cc(C)cc(OCc2nc(CCN(C)C(=O)NCc3ccccc3)no2)c1 | 980
COC(=O)c1ccccc1NC(=O)NCCc1c(C)nn(C)c1C | 629
CC1CCN(c2cncnc2-n2cc(NC(=O)CC3CCCCC3)cn2)CC1 | 1030
Cc1ccc(CN(Cc2ccc(-c3ccccc3S(=O)(=O)NC#N)cc2)C(=O)c2ccccc2Cl)cc1 | 1060
CN1C(=O)c2cccnc2Sc2cc(NC(=O)Cc3cccc(F)c3)ccc21 | 784
CCCCOc1ccc(NC(N)=Nc2ccc(Cl)cc2)cc1 | 778
Cc1ccc(OCC(=O)N(Cc2ccc(N(C)C)cc2)C2CCS(=O)(=O)C2)cc1C (stereo not given) | 774
CCOc1ccccc1-c1noc(Cn2c(=O)n(CC(C)C)c(=O)c3ccccc32)n1 | 1150
COc1ccc(CNC(=O)NCc2cccnc2OC)cc1 | 691
COc1ccc(N2CC(NC(=O)NCCC3=CCCCC3)CC2=O)cc1 (stereo not given) | 731
COc1ccc(C2Cn3cnc(C(=O)N4CCC(C(=O)NC5CCCCCC5)CC4)c3CO2)cc1 (stereo not given) | 797
CCn1ccc2sc(C)c(C(=O)NCc3ccc(Cl)cc3)c2c1=O | 891
CN(C)[C@@H]1CN(C(=O)COc2ccc(Cl)cc2)C[C@H]1CO | 598
CCCOC(=O)c1cccc(Nc2nc(C(=O)OCC)nc3ccccc23)c1 | 955
O=C(C1CCN(c2nnc3ccccn23)CC1)N1CCN(c2ccccn2)CC1 | 543
CC(=O)NCCc1c(Cc2ccccc2)[nH]c2ccccc12 | 876
CCOc1ccc2nc(NC(=O)COc3nccc(C)n3)sc2c1 | 744
CC(C)CCNC(=O)c1cn(C)nc1S(=O)(=O)N1CCC(C)CC1 | 996
